Measurements as given in patent US4293483A, “Derivatives of A-30912A nucleus” (priority 1980, dated 1981).
Read-outs that look alike come from different tables or passages of the source. Numbered stars: 1 amine (or outer) side, 2 acyl side, 3 side chain; on linkers, the order of the positions; unused ones are H or OH. Bridge positions count the residues as written; N and C are the ends. Square brackets hold non-standard residues; d marks the D form. Peptide text beside a SMILES is read from it. * marks the point of attachment. Orn(4R-OH,5R-OH) = O=C([C@H](C[C@@H](O)[C@@H](O)N[*:3])N[*:1])[*:2]; hTyr(3S-OH,4S-OH) = N[C@H](C(=O)O)[C@H](O)[C@@H](O)c1ccc(O)cc1; Pro(3S-OH,4S-Me) = C[C@H]1CN[C@H](C(=O)O)[C@H]1O; Palmitoyl = CCCCCCCCCCCCCCCC(=O)*; Hyp = O=C(O)[C@@H]1C[C@@H](O)CN1; X4 = Cc1cc(C(=O)[*:2])ccc1N[*:1]; Myristoyl = CCCCCCCCCCCCCC(=O)*; X3 = O=C(c1cccnc1N[*:1])[*:2]; Lauroyl = CCCCCCCCCCCC(=O)*; 4Abz = Nc1ccc(C(=O)O)cc1

Tests used:
[1] = tested on: Saccharomyces pastorianus X-52; assay: Agar plate disc diffusion test, zone of inhibition; assay type: cell-based; conditions: Saccharomyces pastorianus, X52, 48 h, 1 mg/ml suspension in methanol, 7 mm disc, 24-48 hours at 25-37° C.
Method: (§1) ^(a) Compounds were tested as suspension in methanol.
(§2) were tested at a concentration of 1 mg/ml by a dipping 7mm disc into the
(§3) suspension and placing it on the agar surface. Incubation: 24-48 hours at

[2] = tested on: Candida albicans A-26; assay: Agar plate disc diffusion test, zone of inhibition; assay type: cell-based; conditions: 1 mg/ml suspension in methanol, 7 mm disc, 24-48 hours at 25-37° C., no regrowth mark
Method: as §1, §2, §3

[3] = mouse, in vivo, 416 mg/kg, 240 min
Method: (§4) In this test, mice are gavaged with a dose of 416 mg/kg of the test compound suspended in 33% PEG 400-water. At time intervals, blood samples are taken from the orbital sinus and are assayed for antibiotic activity as follows: A 7 mm. disc containing 20 μl of whole blood is placed on agar seeded with Aspergillus montevidensis A35137. After 40 hours incubation at 30° C. zones of inhibition from the blood samples are compared to a standard obtained from the test compound, and the amount of compound in the blood sample is calculated.

[4] = tested on: Candida albicans A-26; assay: Agar plate disc diffusion test, MIC per disc; assay type: cell-based; conditions: 0.01M sodium borate, pH 7.5, 24 hours at 30° C.
Method: (§5) In Table 5, activity is measured by the minimal inhibitory concentration (MIC) of the substance (μg/disc) required to inhibit growth of the test organism.
(§6) *Compounds were suspended in 0.01M sodium borate solution, pH 7.5.
(§7) compounds were tested at 20 μg/disc at top level and at twofold
(§8) dilutions until end points were reached.

[5] = tested on: Trichophyton mentagrophytes; assay: Agar plate disc diffusion test, zone of inhibition; assay type: cell-based; conditions: 1 mg/ml, 7 mm disc, * measurable zone of inhibition with regrowth of organism around disc, read-out: Size of Zone of Inhibition (*)
Method: as §1, §2, §3

[6] = tested on: Neurospora Crassa 846; assay: Agar plate disc diffusion test, zone of inhibition; assay type: cell-based; conditions: Neurospora crassa, 1 mg/ml, 7 mm disc, * measurable zone of inhibition with regrowth of organism around disc
Method: as §1, §2, §3

[7] = tested on: Trychophyton mentagrophytes #6; assay: Agar plate disc diffusion test, MIC per disc; assay type: cell-based; conditions: 0.01M sodium borate, pH 7.5, 24 hours at 30° C.
Method: as §5, §6, §7, §8

[8] = tested on: Candida albicans A-26; assay: Therapeutic activity against Candida albicans A-26 infection in mice; assay type: in vivo; conditions: A26, sc
Method: The results of in vivo tests to evaluate the effectiveness of the compound of Examples 61-81, 86 and 88 against an infection caused by Candida albicans A-26 in mice are given in Table 7, where activity is measured by the ED50 value (the dose in mg/kg. required to cure 50% of the test animals). Where an ED50 value was not obtained, activity is indicated by the lowest dose at which a significant anti-fungal effect is observed. In this test, groups of male albino mice (specific pathogen free), weighing 18 to 20 grams, are infected intravenously with Candida albicans A-26. The animals are X-irradiated 24 hours prior to infection at about 50 roentgens per minute for 8 minutes (400 total dose) to reduce immune responses to the infecting organism. At 0, 4, and 24 hours post infection each group of mice is given graded doses subcutaneously of the test compound as a suspension in 33% polyethylene glycol-water. The day of death for each animal is recorded.
*Dosage Schedule: 40, 20, 15, and 10 mg/kg. Dosages given 0, 4, and 24
hours post injection as suspension of test compound in 30% PEGH2 O.
Number of mice receiving test compounds at each dosage level: 6 mice per
group. Number of mice in control (untreated) group: 10 mice per group.
**As measured by increase in survival time of treated animals versus
control, calculated by method of Reed V. Mueuch, American J. Hygiene, 493

[9] = Blood levels after oral administration in mice; conditions: mouse, po, 416 mg/kg
Method: as §4

[10] = Saccharomyces pastorianus X-52, read-out: Size of Zone of Inhibition
[11] = CRASSA846, Neurospora Crassa 846, read-out: Size of Zone of Inhibition (*)
[12] = subcutaneous at 0, 4 and 24 hours post infection, dose to cure 50% of test animals, by increase in survival time, read-out: ED50
[13] = subcutaneous at 0, 4 and 24 hours post infection, lowest dose with significant anti-fungal effect, read-out: Lowest Active Dose
[14] = read-out: Lowest Active Dose, subcutaneous at 0, 4 and 24 hours post infection, lowest dose with significant anti-fungal effect

Blood Levels [3] [ng/mL] | SMILES | zone of inhibition at 1000 µg/mL [1, 10] [mm] | Size of Zone of Inhibition [2] [mm] | MIC [4] [μg/disc] | zone of inhibition at 1000 µg/mL [5] [mm] | zone of inhibition at 1000 µg/mL [6, 11] [mm] | MIC [7] [μg/disc] | ED50 [8, 12] [mg/kg] | minimal effective dose [8, 13] [mg/kg] | zone of inhibition at 1000 µg/mL ([1]; read-out: Size of Zone of Inhibition, Saccharomyces pastorianus X-52) [mm] | zone of inhibition at 1000 µg/mL ([6]; CRASSA846, read-out: Size of Zone of Inhibition (*), Neurospora Crassa 846) [mm] | ED50 [8] [mg/kg] | minimal effective dose [8, 14] [mg/kg] | concentration at 4 h ([9]; in vivo) [ng/mL] | concentration at 4 h ([9]; blood) [ng/mL]
0 | CCCCCCCCCCCC(=O)Nc1ccc(C(=O)N[C@H]2C[C@@H](O)[C@@H](O)NC(=O)[C@@H]3[C@@H](O)[C@@H](C)CN3C(=O)[C@H]([C@@H](C)O)NC(=O)[C@H]([C@H](O)[C@@H](O)c3ccc(O)cc3)NC(=O)[C@@H]3C[C@@H](O)CN3C(=O)[C@H]([C@@H](C)O)NC2=O)cc1C [Example 70] (Lauroyl-[X4][Orn(4R-OH,5R-OH)]T[Hyp][hTyr(3S-OH,4S-OH)]T[Pro(3S-OH,4S-Me)]; lactam 2-C) | 19 | 26 | 20 | 45 | 25 | < 0.039 | > 40 | > 40 | – | – | – | – | – | –
– | CCCCCCCCCCCC(=O)Nc1ccc(C(=O)NCC(=O)N[C@H]2C[C@@H](O)[C@@H](O)NC(=O)[C@@H]3[C@@H](O)[C@@H](C)CN3C(=O)[C@H]([C@@H](C)O)NC(=O)[C@H]([C@H](O)[C@@H](O)c3ccc(O)cc3)NC(=O)[C@@H]3C[C@@H](O)CN3C(=O)[C@H]([C@@H](C)O)NC2=O)cc1 [Example 74] ({Lauroyl-4Abz}-G[Orn(4R-OH,5R-OH)]T[Hyp][hTyr(3S-OH,4S-OH)]T[Pro(3S-OH,4S-Me)]; lactam 2-C) | – | 15 | 10 | – | – | 0.078 | – | – | 13 | 28 | > 40 | > 40 | 640 | –
0 | CCCCCCCCCCCC(=O)Nc1ncccc1C(=O)N[C@H]1C[C@@H](O)[C@@H](O)NC(=O)[C@@H]2[C@@H](O)[C@@H](C)CN2C(=O)[C@H]([C@@H](C)O)NC(=O)[C@H]([C@H](O)[C@@H](O)c2ccc(O)cc2)NC(=O)[C@@H]2C[C@@H](O)CN2C(=O)[C@H]([C@@H](C)O)NC1=O [Example 75] (Lauroyl-[X3][Orn(4R-OH,5R-OH)]T[Hyp][hTyr(3S-OH,4S-OH)]T[Pro(3S-OH,4S-Me)]; lactam 2-C) | 14 | 24 | 2.5 | 54 | 30 | 0.078 | > 40 | > 40 | – | – | – | – | – | –
– | CCCCCCCCCCCCCC(=O)Nc1ccc(C(=O)N[C@H]2C[C@@H](O)[C@@H](O)NC(=O)[C@@H]3[C@@H](O)[C@@H](C)CN3C(=O)[C@H]([C@@H](C)O)NC(=O)[C@H]([C@H](O)[C@@H](O)c3ccc(O)cc3)NC(=O)[C@@H]3C[C@@H](O)CN3C(=O)[C@H]([C@@H](C)O)NC2=O)cc1 [Example 80] ({Myristoyl-4Abz}-[Orn(4R-OH,5R-OH)]T[Hyp][hTyr(3S-OH,4S-OH)]T[Pro(3S-OH,4S-Me)]; lactam 1-C) | 17 | 22 | 1.25 | – | – | < 0.039 | – | – | – | – | 11 | 2.5 | – | 6500
– | CCCCCCCCCCCCCCCC(=O)Nc1ccc(C(=O)N[C@H]2C[C@@H](O)[C@@H](O)NC(=O)[C@@H]3[C@@H](O)[C@@H](C)CN3C(=O)[C@H]([C@@H](C)O)NC(=O)[C@H]([C@H](O)[C@@H](O)c3ccc(O)cc3)NC(=O)[C@@H]3C[C@@H](O)CN3C(=O)[C@H]([C@@H](C)O)NC2=O)cc1 [Example 81] ({Palmitoyl-4Abz}-[Orn(4R-OH,5R-OH)]T[Hyp][hTyr(3S-OH,4S-OH)]T[Pro(3S-OH,4S-Me)]; lactam 1-C) | 24 | 25 | 0.312 | – | – | < 0.039 | – | – | – | – | 7 | 5 | – | 36000
